Test results reported in patent US20240123022A1, “A STABLE ANTI-ANGIOGENIC AND ANTI-INFLAMMATORY PHARMACEUTICAL FORMULATION AND PHARMACEUTICAL COMBINATION FOR TREATMENT AND PREVENTION OF PSORIASIS” (priority 2021, published 2024).

Key:
[1] = tested on: Human endothelial cells (EA.hy.926); assay: Tube formation assay in EA.hy.926 cells; assay type: cell-based
Procedure: This assay was performed to determine ability of various compounds to promote or inhibit tube formation. Compounds that are able to inhibit tube formation could be useful in various diseases, such as cancer, where tumors stimulate new blood vessel formation to receive oxygen and nutrients in order to grow beyond a relatively small size.
Human endothelial cells (EA.hy.926) grown in DMEM and about 10% FBS were used as test system to determine angiogenic effect of IS217 by assessing inhibitory effects of test item on endothelial cells tube formation.
Prior to the tube formation assay, test item of concentration ranging 1 μg/ml, 10 μg/ml, 100 μg/ml, 500 μg/ml and 1000 μg/ml were used to treat endothelial cells for its cytotoxicity effect to assess suitable concentration for tube formation assay. The cells corresponding to positive control group were treated with paclitaxel. Anthralin was also used as positive control for in house validation.
After about 24 hours of incubation in CO2 incubator, 20 μl of 5 mg/ml of MTT was added to identify percentage cytotoxicty by biotek synergy HT plate reader. After that cells were processed for tube formation assay with selected concentrations of TI. The degree of angiogenesis progression was assessed based on visual pattern recognition of photomicrographs of EA.hy.926 cells.

HaCaT cell lines = assay: Cell cycle assay (Sub-G0/G1, pro-apoptotic effect); assay type: cell-based, human; conditions: 48 h, vs untreated
Description: HaCaT cell lines were used as test system since it is widely used for studying anti-psoriatic effects. Curcumin dissolved in DMSO was taken as positive control for validation purpose. Apoptotic effect on HaCaT cell lines was detected by flow cytometry analysis.

[2] = Plasma stability in human plasma; assay type: in vitro ADME
Procedure: Following centrifugation, the supernatant was analyzed on HPLC-UV.

[3] = Pre-formulation stability and maximum feasible concentration; assay type: physicochemical
Procedure: This study is important in CMC preparation of any drug. The study was conducted to develop suitable pre-formulations of IS217 for four administration routes selected for in vivo studies and to determine maximum concentration of IS217 peptide which is feasible in these pre-formulation i.e., maximum feasible concentration (MFC). Four different aqueous based pre-formulations of IS217 like 10% v/v Tween 20, 20% v/v glycerol, 10% PG v/v in 0.9% NaCl solution and 0.9% NaCl alone were prepared and were first subjected to stability study at intended use of temperature (RT) for about 24 hours. HPLC based assay method was used to evaluate the stability.
Out of these, four aqueous based pre-formulation, 0.9% NaCl solution was selected for intravenous (IV) and intraperitoneal (IP) route and also the aqueous vehicle for co-solvent pre-formulation, based on its stability and suitability at physiological conditions. For subcutaneous (SC)/intramuscular route (IM), a co-solvent-based pre-formulation was developed. 10% propylene glycol (PG) in 0.9% NaCl solution was selected as pre-formulation for SC/IM. Maximum feasible concentration of IS217 in both the pre-formulations was greater than 50 mg/ml.

In the case of “H-FAKKFAKKFK-OH [IS217, H-Phe-Ala-Lys-Lys-Phe-Ala-Lys-Lys-Phe-Lys-OH]”, the “inhibition of endothelial morphogenesis on matrigel” value ([1]; Ea.hy.926, 500 μg/ml) is reported as “Complete inhibition”, the endothelial tube formation ([1]; Ea.hy.926, all test concentrations 1 μg/ml to 1000 μg/ml) is reported as “block endothelial tube formation” and the “increase in pro-apoptotic cells (Sub-G0/G1 population)” value (“increase in pro-apoptotic cells” below) (HaCaT cell lines; 100 μg/mL) is reported as 1.2 fold. For the same substance, the “increase in pro-apoptotic cells” value (HaCaT cell lines; 500 μg/mL) was 5.0 fold, the “increase in pro-apoptotic cells” value (HaCaT cell lines; 1000 μg/mL) was 6.8 fold and the “increase in pro-apoptotic cells” value (HaCaT cell lines; 5000 μg/mL) was 1.1 fold. For the same substance, the remaining at 0.25 h, 100 μg/ml ([2]; human plasma, 15 minutes, read-out: IS217 remaining) was 90.7%, the remaining at 0.5 h, 100 μg/ml ([2]; human plasma, 30 minutes, read-out: IS217 remaining) was 105% and the remaining at 0.75 h, 100 μg/ml ([2]; human plasma, 45 minutes, read-out: IS217 remaining) was 85.2%. The remaining at 1 h, 100 μg/ml ([2]; human plasma, 60 minutes, read-out: IS217 remaining) was 91.1%, the plasma stability ([2]; human, plasma) was “stable in human plasma” and the half-life at 100 μg/ml ([2]; human, plasma, from 60 minutes incubation, read-out: calculated half-life in human plasma) was 6.92 h. For the same substance, the Maximum feasible concentration ([3]; 0.9% NaCl solution (IV, IP pre-formulation)) was “greater than 50 mg/ml”, the Maximum feasible concentration ([3]; 10% propylene glycol in 0.9% NaCl solution (SC/IM pre-formulation)) was “greater than 50 mg/ml” and the “physical appearance of pre-formulations” value ([3]; four aqueous pre-formulations, RT, 24 hours) was “no visual changes”.
